The results in this text go back to patent US9273341B2, “Methods for treatment of bacterial infections” (THE JOHNS HOPKINS UNVIERSITY, priority 2010, dated 2016).

The test system of assay [1] is wild-type M. tuberculosis. Briefly: microbe, parasite or virus in culture. The following applies: Mycobacterium tuberculosis. The format is cell-based.
Assay [2] concerns wild-type M. tuberculosis. The arrangement: species or system Balb/C mice. The following applies: mouse, in vivo.

Values after ≈ are worked out from the molar mass of the structure shown.

In assay [1], `N[C@@H]1CON=C1O` [D-cycloserine] had an MIC of 5 µg/mL (≈ 49 µM).

In the case of `NNC(=O)c1ccncc1` [isoniazid], in assay [2], the “bacterial burden (lung CFU) under treatment” value was “similarly effective”. Also, the MIC in assay [1] was 0.03 µg/mL (≈ 0.219 µM).
